Data: US6989380B2, “Treatment of pain” (The WKK Trust, priority 1996, dated 2006)

The compounds below were run on intractable trigeminal neuralgia (assay: Case history: intractable trigeminal neuralgia). Conditions: person; treatments tried before the combination; relief attributed to placebo effects.
Type: in vivo, human
Experimental: A person suffered from intractable trigeminal neuralgia of many years standing. […] They then were treated with lofepramine, 70 mg bd, together with L-phenylalanine, 500 mg bd.

| Compound | pain relief with earlier treatments |
| --- | --- |
| CN1C(=O)CN=C(c2ccccc2)c2cc(Cl)ccc21 [diazepam] | None had provided more than transient relief for a few days |
| CNCCC(Oc1ccc(C(F)(F)F)cc1)c1ccccc1 (centres unmarked) [fluoxetine] | None had provided more than transient relief for a few days |
| O=C1NC(=O)C(c2ccccc2)(c2ccccc2)N1 [phenytoin] | None had provided more than transient relief for a few days |
| CN1CC[C@]23c4c5ccc(O)c4O[C@H]2[C@@H](O)C=C[C@H]3[C@H]1C5 [morpine] | None had provided more than transient relief for a few days |
| NC(=O)N1c2ccccc2C=Cc2ccccc21 [carbamazepine] | None had provided more than transient relief for a few days |
